Assay results taken from patent US9266830B2, “Pesticidal arylpyrrolidines” (Bayer Intellectual Property GmbH, priority 2007, dated 2016).

Tests used:
Type in all cases: in vivo
[1] = system: organic phosphorus agent- and carbamate agent-resistant Myzus persicae; assay: Test for organic phosphorus agent- and carbamate agent-resistant Myzus persicae (spray, eggplant); conditions: 100 ppm active ingredient, 7 days
Method: If not mentioned otherwise, all sample solutions were prepared as described in Biological Test Example 1 and diluted to the appropriate (predetermined) concentrations.
About 30 to 50 of grown organic phosphorus agent- and carbamate agent-resistant Myzus persicae per seedling were inoculated to leaves at 2-leaf stage of eggplants grown in a pot of 6 cm in diameter, to which, after 1 day from the inoculation, the above prepared water-diluted solution of above active compound of the predetermined concentration was sufficiently sprayed with a spray gun. After the spraying, the pot was left in a greenhouse at room temperature for 7 days, followed by the pest-controlling rate calculated. The test was repeated twice.

Boophilus microplus = Boophilus microplus test (injection); conditions: application rate 20 μg/animal, adult engorged females, after 7 days
Method in brief: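 Compound dissolved and diluted in DMSO, then injected into the abdomen of adult engorged female ticks, five per dose. Ticks held in a climate chamber and fertile egg deposition monitored. Read at 7 days as %, 100% = all eggs infertile, 0% = all fertile.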

Lucilia cuprina larvae = assay: Lucilia cuprina test (larvae in minced horse meat); conditions: Lucilia cuprina, 48 h, read-out: activity (mortality in %)
Method: (§1) Solvent: dimethyl sulfoxide
To produce a suitable preparation of active compound, 10 mg of active compound are dissolved in 0.5 ml solvent, and the concentrate is diluted with water to the desired concentration. Approximately 20-30 (Lucilia cuprina larvae) are transferred into a test tube containing 1 cm^3 of minced horse meat and 0.5 ml aqueous dilution of test compound. After 2 days mortality in % is determined 100% means that all the larvae have been killed; 0% means that none of the larvae have been killed.

Ctenocephalides felis = Ctenocephalides felis test (CTECFE), blood feeding; conditions: 48 h, read-out: activity (mortality in %)
Method: as §1
To produce a suitable preparation of active compound, 10 mg of active compound are dissolved in 0.5 ml solvent, and the concentrate is diluted with cattle blood to the desired concentration. Approximately 10 to 15 adult unfed (Ctenocepahlides felis) are placed in flea chambers. The blood chamber, are sealed with parafilm on the bottom are filled with cattle blood supplied with compound solution and placed on top of the flea chamber, so that the fleas are able to suck the blood. The blood chamber is heated to 37° C. whereas the flea chamber is kept at room temperature. After 2 days mortality in % is determined 100% means that all the fleas have been killed; 0% means that none of the fleas have been killed.

Musca domestica = Musca domestica test (sugar sponge); conditions: Musca domestica, 48 h, read-out: activity (mortality in %)
Method: as §1
To produce a suitable preparation of active compound, 10 mg of active compound are dissolved in 0.5 ml solvent, and the concentrate is diluted with water to the desired concentration. Prior to the assay, a piece or kitchen sponge is soaked with a mixture of sugar and compound solution and placed into a container. 10 adults (Musca domestica) are placed into the container and closed with a perforated lid. After 2 days mortality in % is determined. 100% means that all the flies have been killed; 0% means that none of the flies have been killed.

Amblyomma hebraeum = Amblyomma hebraeum test (AMBYHE), nymph immersion; conditions: comparison with WO2008/128711
Method: as §1
To produce a suitable preparation of active compound, 10 mg of active compound are dissolved in 0.5 ml solvent, and the concentrate is diluted with water to the desired concentration. Nymphs of the tick Amblyomma hebraeum are placed in perforated plastic beakers and immersed in aqueous compound solution for one minute. Ticks are transferred to a filter paper in a Petri dish and incubated in a climate chamber for 42 days.
After 42 days mortality in % is determined 100% means that all the ticks have been killed; 0% means that none of the ticks have been killed.

Row | SMILES | insecticidal rate (pest-controlling rate) [1] | activity (100% means that all eggs are infertile) (Boophilus microplus) | further results
1 | CCCC(=O)NCc1ccc(N2CCC(c3cc(Cl)c(Cl)c(Cl)c3)(C(F)(F)F)C2)cc1C(F)(F)F (stereo not shown) [1-328] | 100% |  | 
2 | O=C(CC(F)(F)F)NCc1ccc(N2CCC(c3cc(C(F)(F)F)cc(C(F)(F)F)c3)(C(F)(F)F)C2)cc1Br (stereo not shown) [1-314] | 100% | 100% | 
3 | CCC(=O)NCc1ccc(N2CCC(c3cc(Cl)cc(C(F)(F)F)c3)(C(F)(F)F)C2)cc1C(F)(F)F (stereo not shown) [1-356] | 100% |  | 
4 | CCC(=O)NCc1sc(N2CCC(c3cc(Cl)c(Cl)c(Cl)c3)(C(F)(F)F)C2)nc1C(F)(F)F (stereo not shown) [5-142, N-({2-[3-(3,4,5-trichlorophenyl)-3-(trifluoromethyl)pyrrolidin-1-yl]-4-(trifluoromethyl)-1,3-thiazol-5-yl}methyl)propanamide] |  | 100% | mortality at 100 ppm (Lucilia cuprina larvae): 100%; mortality at 100 ppm (Ctenocephalides felis): 100%; mortality at 100 ppm (Musca domestica): 100%
5 | CCC(=O)NCc1cnc(N2CCC(c3cc(Cl)c(Cl)c(Cl)c3)(C(F)(F)F)C2)nc1C(F)(F)F (stereo not shown) [3-142] | 100% | 100% | 
6 | O=C(NCc1ccc(N2CCC(c3cc(Cl)cc(Cl)c3)(C(F)(F)F)C2)cc1C(F)(F)F)c1ccc(Cl)nc1 (stereo not shown) [1-198, 6-chloro-N-{4-[3-(3,5-dichlorophenyl)-3-(trifluoromethyl)-pyrrolidin-1-yl]-2-(trifluoromethyl)benzyl}pyridine-3-carboxyamide] |  | 100% | mortality at 100 ppm (Lucilia cuprina larvae): 100%; mortality at 100 ppm (Ctenocephalides felis): 90%
7 | CCC(=O)NCc1ccc(N2CCC(c3cc(Cl)cc(Cl)c3)(C(F)(F)F)C2)cc1C(F)(F)F (stereo not shown) [1-143] | 100% | 100% | Activity at 0.8 ppm (Amblyomma hebraeum; 0.8 ppm): 100%; Activity at 4 ppm (Amblyomma hebraeum; 4 ppm): 100%
8 | O=C(CC(F)(F)F)NCc1ccc(N2CCC(c3cc(C(F)(F)F)cc(C(F)(F)F)c3)(C(F)(F)F)C2)cc1Cl (stereo not shown) [1-309] | 100% | 100% | 
